Assay results as given in patent US20080004253A1, “Thiazolopyrimidine modulators of TRPV1” (priority 2006, published 2008).

How the values were obtained:
rat TRPV1 = target: T1, rat TRPV1 (Rattus norvegicus, UniProt O35433); assay: Functional assay: block of capsaicin-induced Ca2+ influx, rat assay (rTRPV1/HEK293, FLIPR); type: cell-based; details: rTRPV1/HEK293 cells, capsaicin challenge, Fluo-3 fluorescence; mean; > value = solubility limit in assay medium
T1 construct: expressed in transfected cells; host or cells: HEK293 (rTRPV1/HEK293), geneticin selection
T1 sequence (O35433 whole entry): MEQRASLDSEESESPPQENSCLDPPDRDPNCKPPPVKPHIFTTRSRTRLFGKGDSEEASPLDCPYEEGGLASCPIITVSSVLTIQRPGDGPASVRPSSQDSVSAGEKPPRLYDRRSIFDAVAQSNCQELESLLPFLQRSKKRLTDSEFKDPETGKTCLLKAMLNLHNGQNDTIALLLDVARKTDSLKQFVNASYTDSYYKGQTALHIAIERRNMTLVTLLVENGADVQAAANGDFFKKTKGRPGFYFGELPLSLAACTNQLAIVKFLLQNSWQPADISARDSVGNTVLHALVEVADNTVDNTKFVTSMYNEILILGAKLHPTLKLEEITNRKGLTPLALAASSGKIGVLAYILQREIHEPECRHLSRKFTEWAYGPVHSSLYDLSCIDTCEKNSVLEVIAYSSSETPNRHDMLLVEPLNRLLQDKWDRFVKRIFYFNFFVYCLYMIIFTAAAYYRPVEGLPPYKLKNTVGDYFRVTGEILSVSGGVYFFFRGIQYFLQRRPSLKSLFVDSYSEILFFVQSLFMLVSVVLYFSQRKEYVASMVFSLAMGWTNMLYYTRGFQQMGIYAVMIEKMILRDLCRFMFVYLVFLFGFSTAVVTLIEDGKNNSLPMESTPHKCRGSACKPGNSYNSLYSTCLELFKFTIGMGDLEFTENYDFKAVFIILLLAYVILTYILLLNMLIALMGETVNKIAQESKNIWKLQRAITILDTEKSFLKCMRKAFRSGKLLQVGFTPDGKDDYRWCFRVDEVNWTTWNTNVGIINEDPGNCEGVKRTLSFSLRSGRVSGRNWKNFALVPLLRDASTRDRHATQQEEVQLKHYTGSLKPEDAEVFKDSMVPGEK
How it was run: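 HEK293 cells expressing rat TRPV1, loaded with fluo3 and preincubated 30 min with compound in 20 μM Ca2+ buffer before capsaicin challenge. Block read as fluo3 fluorescence change over 100 s after agonist, 3-fold series from 10 μM in duplicate. IC50 by non-linear regression, mean values.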

human TRPV1 = target: T2, human TRPV1 (Homo sapiens, UniProt Q8NER1); assay: Functional assay: block of capsaicin-induced Ca2+ influx, human assay (hTRPV1/HEK293, FLIPR); type: cell-based; details: hTRPV1/HEK293 cells, 150 nM capsaicin challenge, Fluo-3 fluorescence; mean; > value = solubility limit in assay medium
T2 construct: expressed in transfected cells; host or cells: HEK293 (hTRPV1/HEK293), zeocin selection
T2 sequence (Q8NER1 whole entry): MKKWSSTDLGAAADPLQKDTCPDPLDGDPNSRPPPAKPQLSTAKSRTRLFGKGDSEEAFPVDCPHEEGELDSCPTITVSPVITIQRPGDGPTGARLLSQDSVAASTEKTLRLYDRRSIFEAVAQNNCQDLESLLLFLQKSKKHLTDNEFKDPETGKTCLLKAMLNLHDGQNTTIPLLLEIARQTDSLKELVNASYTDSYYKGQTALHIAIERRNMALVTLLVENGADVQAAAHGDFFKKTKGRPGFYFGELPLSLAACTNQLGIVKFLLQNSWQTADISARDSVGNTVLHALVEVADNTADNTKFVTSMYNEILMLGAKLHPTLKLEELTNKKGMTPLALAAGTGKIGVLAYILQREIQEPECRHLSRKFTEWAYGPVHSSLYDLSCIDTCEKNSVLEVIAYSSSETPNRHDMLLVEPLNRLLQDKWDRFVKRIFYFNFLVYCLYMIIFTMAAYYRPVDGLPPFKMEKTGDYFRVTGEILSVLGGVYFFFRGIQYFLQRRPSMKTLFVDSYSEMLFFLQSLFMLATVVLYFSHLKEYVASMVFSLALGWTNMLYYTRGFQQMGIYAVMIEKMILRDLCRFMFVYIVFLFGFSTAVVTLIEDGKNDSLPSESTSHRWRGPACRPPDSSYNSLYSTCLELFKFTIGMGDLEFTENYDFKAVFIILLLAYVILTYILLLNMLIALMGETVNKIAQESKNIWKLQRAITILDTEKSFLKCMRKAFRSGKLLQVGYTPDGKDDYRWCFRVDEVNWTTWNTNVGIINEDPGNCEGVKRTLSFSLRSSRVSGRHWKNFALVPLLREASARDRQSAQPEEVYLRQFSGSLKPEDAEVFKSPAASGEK
How it was run: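 HEK293 cells stably expressing human TRPV1, fluo3-loaded, preincubated 30 min with compound (serial 3-fold dilutions from 10 μM, duplicate) in 20 μM Ca2+ buffer. Capsaicin response taken as fluo3 fluorescence change before vs 100 s after agonist; IC50 by non-linear regression, mean values; free base or TFA salt.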

Compound	IC50 (rat TRPV1)	IC50 (human TRPV1)
Cc1cccc(C)c1Nc1nc2c(NCc3ccccc3)ncnc2s1 [Example 43, N^7-Benzyl-N^2-(2,6-dimethyl-phenyl)-thiazolo[5,4-d]pyrimidine-2,7-diamine]	> 6670 nM	> 6670 nM
Cc1cccc(C)c1Nc1nc2c(Nc3ccc(C(C)(C)C)cc3)ncnc2s1 [Example 12, N^7-(4-tert-Butyl-phenyl)-N^2-(2,6-dimethyl-phenyl)-thiazolo[5,4-d]pyrimidine-2,7-diamine]	4 nM	30 nM
Cc1nc(Nc2ccc(C(F)(F)F)cc2)c2nc(Nc3c(C)cccc3C)sc2n1 [Example 245, N^2-(2,6-Dimethyl-phenyl)-5-methyl-N^7-(4-trifluoromethyl-phenyl)-thiazolo[5,4-d]pyrimidine-2,7-diamine]	5 nM	6 nM
CS(=O)(=O)c1ccc(Nc2nc(NCC3CC3)nc3sc(Nc4c(Cl)cccc4Cl)nc23)cc1 [Example 184, N^5-Cyclopropylmethyl-N^2-(2,6-dichloro-phenyl)-N^7-(4-methanesulfonyl-phenyl)-thiazolo[5,4-d]pyrimidine-2,5,7-triamine]	5 nM	8 nM
Cc1nc(Nc2ccc3c(c2)N(C)CCC3(C)C)c2nc(Nc3c(Cl)cccc3Cl)sc2n1 [Example 107, N^2-(2,6-Dichloro-phenyl)-5-methyl-N^7-(1,4,4-trimethyl-1,2,3,4-tetrahydro-quinolin-7-yl)-thiazolo[5,4-d]pyrimidine-2,7-diamine]	2 nM	25 nM
FC(F)(F)c1ccc(Nc2ncnc3sc(Nc4ccccc4C(F)(F)F)nc23)cc1 [Example 225, N^2-[2-(Trifluoromethyl)phenyl]-N^7-[4-(trifluoromethyl)phenyl][1,3]thiazolo[5,4-d]pyrimidine-2,7-diamine]	32 nM	91 nM
N#Cc1cc(Cl)c(Nc2nc3c(Nc4ccc(C(F)(F)F)cc4)ncnc3s2)c(Cl)c1 [Example 234, 3,5-Dichloro-4-[7-(4-trifluoromethyl-phenylamino)-thiazolo[5,4-d]pyrimidin-2-ylamino]-benzonitrile]	68 nM	140 nM
Cc1nc(Nc2ccc(OC(F)(F)F)cc2)c2nc(Nc3c(Cl)cccc3Cl)sc2n1 [Example 111, N^2-(2,6-Dichloro-phenyl)-5-methyl-N^7-(4-trifluoromethoxy-phenyl)-thiazolo[5,4-d]pyrimidine-2,7-diamine]	16 nM	36 nM
Cc1ccccc1Nc1nc2c(Nc3ccc(C(F)(F)F)nc3)ncnc2s1 [Example 218, N^2-(2-Methylphenyl)-N^7-[6-(trifluoromethyl)pyridin-3-yl][1,3]thiazolo[5,4-d]pyrimidine-2,7-diamine]	24 nM	55 nM
Cc1nc(Nc2ccc(C(C)(C)C)cc2)c2nc(Nc3c(C)noc3C)sc2n1 [Example 209, N^7-(4-tert-Butyl-phenyl)-N^2-(3,5-dimethyl-isoxazol-4-yl)-5-methyl-thiazolo[5,4-d]pyrimidine-2,7-diamine]	162 nM	269 nM
CSc1ccc(Nc2nc(C)nc3sc(Nc4c(Cl)cccc4Cl)nc23)cn1 [Example 185, N^2-(2,6-Dichloro-phenyl)-5-methyl-N^7-(6-methylsulfanyl-pyridin-3-yl)-thiazolo[5,4-d]pyrimidine-2,7-diamine]	32 nM	31 nM
O=S(=O)(c1ccc(Nc2ncnc3sc(Nc4c(Cl)cncc4Cl)nc23)cc1)N1CCCC1 [Example 214, N^2-(3,5-Dichloro-pyridin-4-yl)-N^7-[4-(pyrrolidine-1-sulfonyl)-phenyl]thiazolo[5,4-d]pyrimidine-2,7-diamine]	240 nM	907 nM
FC(F)(F)c1ccc(Nc2nc(N3CCNCC3)nc3sc(Nc4c(Cl)cccc4Cl)nc23)cc1 [Example 163, N^2-(2,6-Dichloro-phenyl)-5-piperazin-1-yl-N^7-(4-trifluoromethyl-phenyl)-thiazolo[5,4-d]pyrimidine-2,7-diamine]	5140 nM	5950 nM
COC(=O)c1ccc(Nc2ncnc3sc(Nc4c(C)cccc4C)nc23)cc1 [Example 37, 4-[2-(2,6-Dimethyl-phenylamino)-thiazolo[5,4-d]pyrimidin-7-ylamino]-benzoic acid methyl ester]	38 nM	134 nM
Cc1nc(Nc2ccc(C(F)(F)F)cc2)c2nc(Nc3ccccc3Cl)sc2n1 [Example 202, N^2-(2-Chloro-phenyl)-5-methyl-N^7-(4-trifluoromethyl-phenyl)-thiazolo[5,4-d]pyrimidine-2,7-diamine]	58 nM	57 nM
Cc1noc(C)c1Nc1nc2c(Nc3ccc(C(F)(F)F)nc3)ncnc2s1 [Example 24, N^2-(3,5-Dimethyl-isoxazol-4-yl)-N^7-(6-trifluoromethyl-pyridin-3-yl)-thiazolo[5,4-d]pyrimidine-2,7-diamine]	709 nM	2360 nM
Cc1cccc(C)c1Nc1nc2c(Nc3ccc(C(=O)N(C)C)cc3)ncnc2s1 [Example 145, 4-[2-(2,6-Dimethyl-phenylamino)-thiazolo[5,4-d]pyrimidin-7-ylamino]-N,N-dimethyl-benzamide]	442 nM	452 nM
CC(C)OC(=O)C(C)(C)c1ccc(Nc2ncnc3sc(Nc4c(Cl)cccc4Cl)nc23)cc1 [Example 231, 1-Methylethyl 2-[4-({2-[(2,6-dichlorophenyl)amino][1,3]thiazolo[5,4-d]pyrimidin-7-yl}amino)phenyl]-2-methylpropanoate]	81 nM	698 nM

More lines, in order of falling IC50 (rat TRPV1), values ahead:

IC50 (rat TRPV1)	IC50 (human TRPV1)	Compound
440 nM	1420 nM	CN1CCN(CCCNc2nc(Nc3ccc(C(F)(F)F)cc3)c3nc(Nc4c(Cl)cccc4Cl)sc3n2)CC1 [Example 153, N^2-(2,6-Dichloro-phenyl)-N^5-[3-(4-methyl-piperazin-1-yl)-propyl]-N^7-(4-trifluoromethyl-phenyl)-thiazolo[5,4-d]pyrimidine-2,5,7-diamine]
398 nM	401 nM	Cc1nc(Nc2ccc(C(F)(F)F)cc2)c2nc(Nc3c(C)noc3C)sc2n1 [Example 208, N^2-(3,5-Dimethyl-isoxazol-4-yl)-5-methyl-N^7-(4-trifluoromethyl-phenyl)thiazolo[5,4-d]pyrimidine-2,7-diamine]
279 nM	423 nM	Cc1nc(Nc2ccc([S+](C)[O-])cc2)c2nc(Nc3c(C)cccc3C)sc2n1 (racemic) [Example 143, (racemic)-N^2-(2,6-Dimethyl-phenyl)-N^7-(4-methanesulfinyl-phenyl)-5-methyl-thiazolo[5,4-d]pyrimidine-2,7-diamine]
126 nM	735 nM	Cc1ccc(Nc2ncnc3sc(Nc4c(C)cccc4C)nc23)cc1F [Example 148, N^2-(2,6-Dimethyl-phenyl)-N^7-(3-fluoro-4-methyl-phenyl)-thiazolo[5,4-d]pyrimidine-2,7-diamine]
98 nM	101 nM	CC(C)(C#N)c1ccc(Nc2ncnc3sc(Nc4c(Cl)cccc4Cl)nc23)cc1 [Example 228, 2-[4-({2-[(2,6-Dichlorophenyl)amino][1,3]thiazolo[5,4-d]pyrimidin-7-yl}amino)phenyl]-2-methylpropanenitrile]
34 nM	223 nM	Cc1noc(C)c1Nc1nc2c(Nc3ccc(C(C)(C)C)cc3)ncnc2s1 [Example 51, N^7-(4-tert-Butyl-phenyl)-N^2-(3,5-dimethyl-isoxazol-4-yl)-thiazolo[5,4-d]pyrimidine-2,7-diamine]
20 nM	26 nM	Cc1cccc(C)c1Nc1nc2c(Nc3ccc(S(=O)(=O)N4CCN(C)CC4)cc3)ncnc2s1 [Example 110, N^2-(2,6-Dimethyl-phenyl)-N^7-[4-(4-methyl-piperazine-1-sulfonyl)-phenyl]-thiazolo[5,4-d]pyrimidine-2,7-diamine]
5 nM	8 nM	Cc1cccc(C)c1Nc1nc2c(Nc3ccc(C(C)C)cc3)ncnc2s1 [Example 46, N^2-(2,6-Dimethyl-phenyl)-N^7-(4-isopropyl-phenyl)-thiazolo[5,4-d]pyrimidine-2,7-diamine]
5 nM	13 nM	Cc1cccc(Cl)c1Nc1nc2c(Nc3ccc(C(F)(F)F)nc3)ncnc2s1 [Example 15, N^2-(2-Chloro-6-methyl-phenyl)-N^7-(6-trifluoromethyl-pyridin-3-yl)-thiazolo[5,4-d]pyrimidine-2,7-diamine]
1 nM	1 nM	CN(C)S(=O)(=O)c1ccc(Nc2ncnc3sc(Nc4c(Cl)cccc4Cl)nc23)cc1 [Example 75, 4-[2-(2,6-Dichloro-phenylamino)-thiazolo[5,4-d]pyrimidin-7-ylamino]-N,N-dimethyl-benzenesulfonamide]
1 nM	2 nM	O=S(=O)(c1ccc(Nc2ncnc3sc(Nc4c(Cl)cccc4Cl)nc23)cc1)N1CCOCC1 [Example 80, N^2-(2,6-Dichloro-phenyl)-N^7-[4-(morpholine-4-sulfonyl)-phenyl]-thiazolo[5,4-d]pyrimidine-2,7-diamine]
1 nM	1 nM	OCc1cc(Cl)c(Nc2nc3c(Nc4ccc(C(F)(F)F)cc4)ncnc3s2)c(Cl)c1 [Example 242, {3,5-Dichloro-4-[7-(4-trifluoromethyl-phenylamino)-thiazolo[5,4-d]pyrimidin-2-ylamino]-phenyl}-methanol]
